Measurements taken from patent US20240409647A1, “BISPECIFIC BINDING PROTEINS AGAINST ALARMINS AND USES THEREOF” (SINOMAB BIOSCIENCE LIMITED, priority 2022, published 2024).

What was measured:
[1] = system: Th2 cell population in human PBMC; assay: Th2 cell population in human PBMC culture (flow cytometry); assay type: cell-based; design: key: −: no inhibition; +: weak; ++: moderate; +++: strong inhibition; settings: IL-2 (10 unit/mL) and three alarmins (10 ng/ml), 5 days
Text: (§1) While alarmins are known to work in concert to enhance ILC2 and Th2 cell functions such as increase in cell population, steroids such as Dexamethasone (Dex) can negate these effects, resulting in the mitigation of type 2 immune responses [Jia, Yi et al. American Journal Of Respiratory Cell And Molecular Biology, vol. 55, 5 (2016): 675-683]. ILC2 and Th2 cell population can be determined by flow cytometry (BD FACSVerse) following standard procedures known to those skilled in the art.

[2] = system: ILC2 population in human PBMC; assay: ILC2 cell population in human PBMC culture (flow cytometry); assay type: cell-based; design: key: −: no inhibition; +: weak; ++: moderate; +++: strong inhibition; settings: IL-2 (10 unit/mL) and three alarmins (10 ng/ml), 5 days
Text: as §1

[3] = patients who discontinued ICS and LABA, 12 weeks; placebo 41%; cited from earlier work

Molecule | Cell proliferation inhibition, Th2 [1] | Cell proliferation inhibition, ILC2 [2] | rate of loss of asthma control [3]
C[C@@H]1C[C@H]2[C@@H]3CCC4=CC(=O)C=C[C@]4(C)[C@@]3(F)[C@@H](O)C[C@]2(C)[C@@]1(O)C(=O)CO [Dex, Dexamethasone, reference compound] | +++ | + | –
Dupilumab: anti-IL-4Ra antibody inhibiting both IL-4 and IL-13 responses [reference compound] | – | – | 19%
